Where two headings read alike, the source gives them in different places.
Assays:
[1] = non-tumor bearing pigs, cited from earlier work
retinoblastoma cells = format: cell-based; details: infection of retinoblastoma cells with VCN-01
E1A [2] = format: in vivo, mouse
Y79 cells [3] = assay: Cell cycle of retinoblastoma cells (propidium iodide cytometry); format: cell-based
Description: Then, the cells were collected and fixed in 70% ethanol for 2 h. The propidium iodide (PI)-based assay FxCycle™ PI/RNase (Thermo Fisher Scientific) was used as staining solution prior to quantification by flow cytometry (NovoCyte).

RBT-7 xenografts = assay: Ocular survival, RBT-7 intraocular xenografts; format: in vivo, mouse; details: control 35 days; combination P<0.0001 (FIG. 20C)
Description: Antitumor activity in retinoblastoma. For orthotopic intraocular engraftments 2×10^5 retinoblastoma cells were inoculated per eye, in 2 μL matrigel (Pascual-Pasto et al., 2016). To obtain s.c. xenografts 10^6 cells were injected in 25 μl matrigel. For ocular tumors, treatments were started at day 8 after inoculation (when tumors were appreciable by fundus examination). For s.c. tumors, treatments were started when volumes achieved 100-300 mm^3 (day 1). After treatments, the survivors were followed up until endpoint and the median survival of each group was calculated, as described previously (Mandigo et al., 2022; Rodríguez-García et al., 2015).
In a second experiment, the sequence of administration of one injection of VCN-01 and one 5-day cycle of topotecan was addressed. Mice with intraocular tumors (Y79 or RBT-7) received either topotecan 0.6 mg/kg, i.p. on days 8-12, one intravitreal injection of VCN-01 (3×10^8 vp) on day 8, or the combination of topotecan and VCN-01. Y79-bearing mice also received a switched treatment sequence, with VCN-01 on day 12, after the last dose of topotecan.

[4] = test system: HSJD-RBT-2 retinoblastoma cells; assay: Antiproliferative activity (MTS), HSJD-RBT-2; format: cell-based; details: Homo sapiens
[5] = test system: HSJD-RBT-5 retinoblastoma cells; assay: cells; format: cell-based; details: Homo sapiens
[6] = Accumulation of topotecan in VCN-01-infected retinoblastoma; format: in vivo, mouse
Text: Accumulation of topotecan in VCN-01-infected retinoblastoma. The Animal Experimental Ethics Committee at the University of Barcelona (animal protocol number 482/18) approved animal experimentation. Retinoblastoma cells in the eyes of athymic nude mice (Envigo, Barcelona, Spain), as previously described (Pascual-Pasto et al., 2016). After 14 days, VCN-01 (3×10^9 vp/eye) was inoculated. After another 14 days, s.c. osmotic pumps loaded with topotecan were implanted to achieve constant topotecan in plasma, as described previously (Pascual-Pasto et al., “Increased delivery of chemotherapy to the vitreous by inhibition of the blood-retinal barrier,” J Control Release 2017; 264:34-44), and collected tumor samples for analysis of topotecan.
Animal experiments were carried out following institutional and European guidelines (EU Directive 2010/63/EU) and the ARRIVE guidelines ([…]). Retinoblastoma cells (2×10^5) were inoculated into the posterior segment of the eye of six week old athymic nude mice using a dull 33G needle, as previously described (Giani et al., 1994). […] Samples were analyzed by high performance liquid chromatography (HLPC) as described previously ([…]).

Y79 cells [7] = assay: Viral production assay; format: cell-based; details: Y79 pre-infected with 500 MOI; topotecan 2 μM (FIG. 18F)
Description: Viral production assay. Y79 cells were infected with a concentration of 500 multiplicity of infection (MOI; i.e., transducing units of virus per cell), which was sufficient to achieve 80% to 100% infectivity. After 4 h, the cells were washed three times with PBS, fresh medium was added, and the cells were incubated with or without topotecan (2 μM). At time points 30, 48 and 72 h post-infection, the cell pellets were collected and exposed to three rounds of freeze-thaw lysis. Viral titers were determined in the pellets in triplicate, following an anti-hexon staining-based method in HEK293 cells (Cascallo et al., 2007).

E1a [8] = assay: Immunoblot of E1a / E2F-1 in VCN-01-infected Y79 cells with further chemotherapeutics; format: cell-based
Description: 2 million Y79 retinoblastoma cells were infected with 50 MOIs of VCN-01. […] Etoposide is topoisomerase 2 inhibitor.
In all experiments, 6-well culture plates containing 2×10^6 cells were used. […] The experiments were controlled by adding culture medium instead of the second treatment. […] The analyses were expanded to other chemotherapeutic agents including hydroxyurea ([…]), etoposide (2 μM), irinotecan (10 μM) or SN-38 (1 μM).
Near-infrared labeled secondary antibodies (Odyssey CLx, LI-COR Inc. Bad Homburg, Germany) were used for detection.

[9] = read-out: IC50, Topotecan single agent
[10] = read-out: IC50, Topotecan with VCN-01 (10 MOI)

CC[C@@]1(O)C(=O)OCc2c1cc1n(c2=O)Cc2cc3c(CN(C)C)c(O)ccc3nc2-1 [Topotecan, topotecan]
systemic exposure, OAC versus IV [1]: systemic exposure was comparable between the two routes | topotecan concentration in retina, OAC versus IV ([1]; retina, after OAC than after IV): 146 times higher | topotecan concentration in vitreous, OAC versus IV ([1]; vitreous, after OAC than after IV): 243 times higher | cell sensitivity to drug after VCN-01 infection (retinoblastoma cells): decreased cell sensitivity | number of E1A-positive cells (E1A [2]; 5-day topotecan treatment, VCN-01-pretreated tumors, vs saline, […] or hydroxyurea (FIG. 18I)): highest number of E1A-positive cells | level of E1A protein expression (E1A [2]; 5-day topotecan treatment, VCN-01-pretreated tumors, vs saline, […] or hydroxyurea (FIG. 18J)): highest level of E1A protein expression | VCN-01 activity (E1A) in tumors (E1A [2]; systemic drug after intratumoral VCN-01, 5 or 15 days (FIGS. 4A-C)): enhances VCN-01 activity | percentage of cells in S-phase (Y79 cells [3]; 24 h (FIG. 17A)): increased the percentage of cells in S-phase | duration of S-phase effect (Y79 cells [3]; topotecan 2 μM (FIG. 17B,C)): at least 48 h | median survival (RBT-7 xenografts): 39 days | IC50 [4, 9]: 7.38 nM | IC50 [4, 10]: 50.7 nM | IC50 [5, 9]: 87.9 nM | IC50 [5, 10]: 586 nM | biodistribution of topotecan in intraocular tumors ([6]; concomitant treatment with VCN-01 (FIG. 21)): did not change | concentration at 6 h ([6]; mouse, in vivo, sc, 25 ug/h, osmotic pump, 25 μg/h, athymic nude mice, read-out: topotecan plasma level at steady state): ~100 ng/mL | viral production (Y79 cells [7]): did not increase viral production | expression of VCN-01 proteins (E1a) (E1a [8]; VCN-01 50 MOI, drug added at 24 h, lysis at 48 h (FIG. 7)): similarly to topotecan | expression of E2F-1 and E1A (E1a [8]; Y79 cells pre-exposed to VCN-01 (FIG. 13H)): increased the expression of E2F-1 and E1A similarly to topotecan
